Values joined by “and” are separate entries in the source; they are usually repeats but may differ in a detail not shown here. Equal entries are not always repeated.
Legend:
CA II = CA II (Homo sapiens, UniProt P00918); assay: CA-catalysed CO2 hydration stopped-flow inhibition assay, CA II; assay type: biochemical; details: mean from 3 assays
CA IX = CA IX (Homo sapiens, UniProt Q16790); assay: CA-catalysed CO2 hydration stopped-flow inhibition assay, CA IX; assay type: biochemical; details: mean from 3 assays
CA XII = CA XII (Homo sapiens, UniProt O43570); assay: CA-catalysed CO2 hydration stopped-flow inhibition assay, CA XII; assay type: biochemical; details: mean from 3 assays
Sequence of CA XII (O43570 25-354): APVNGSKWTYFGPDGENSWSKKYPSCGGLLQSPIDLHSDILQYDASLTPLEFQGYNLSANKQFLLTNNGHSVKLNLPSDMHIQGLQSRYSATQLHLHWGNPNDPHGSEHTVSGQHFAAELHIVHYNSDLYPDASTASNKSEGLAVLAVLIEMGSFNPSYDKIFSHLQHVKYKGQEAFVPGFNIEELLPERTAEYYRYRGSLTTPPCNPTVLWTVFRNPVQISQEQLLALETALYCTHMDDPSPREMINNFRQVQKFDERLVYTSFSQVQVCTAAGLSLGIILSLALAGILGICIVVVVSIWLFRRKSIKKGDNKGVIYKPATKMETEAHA

CA I = CA I (Homo sapiens, UniProt P00915); assay: CA-catalysed CO2 hydration stopped-flow inhibition assay, CA I; assay type: biochemical; details: mean from 3 assays
Sequence of CA I (P00915 whole entry): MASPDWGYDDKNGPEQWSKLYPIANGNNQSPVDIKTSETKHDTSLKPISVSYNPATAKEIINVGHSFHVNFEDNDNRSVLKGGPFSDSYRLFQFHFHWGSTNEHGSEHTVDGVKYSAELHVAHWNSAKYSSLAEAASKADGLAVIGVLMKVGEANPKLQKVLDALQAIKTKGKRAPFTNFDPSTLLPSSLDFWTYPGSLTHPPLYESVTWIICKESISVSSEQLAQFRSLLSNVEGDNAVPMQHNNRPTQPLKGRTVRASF

HEK293 cells = assay: MTS cytotoxicity / cell viability assay; assay type: cell-based, human; details: low tumorigenic cells (HEK293)
[1] = MTS cytotoxicity / cell viability assay; assay type: cell-based, human; details: human, HEK293 cells

SMILES	Ki (CA II; μM unless stated) [µM]	Ki (CA IX; μM unless stated) [µM]	Ki (CA XII; μM unless stated) [µM]	Ki (CA I; μM unless stated) [µM]	Ki (CA II; cells/sentences stated in nM)	Ki (CA IX; cells/sentences stated in nM) [µM]	Ki (CA XII; cells/sentences stated in nM)	Ki (CA I; cells/sentences stated in nM) [µM]	general cytotoxic effect (HEK293 cells)	viability at 72 h, 100 µM [1] [%]
CCOC(=O)c1cc2ccc(OCC(=O)Nc3ccc(S(=O)(=O)Nc4ncnc(OC)c4OC)cc3)cc2oc1=O [5b, Ethyl 7-(2-((4-(N-(5,6-dimethoxypyrimidin-4-yl)sulfamoyl)phenyl)amino)-2-oxoethoxy)-2-oxo-2H-chromene-3-carboxylate]	> 100	> 100	> 100	> 100	–	–	–	–	–	–
COc1ccc(NS(=O)(=O)c2ccc(NC(=O)c3cc4cc(Cl)cc(Cl)c4oc3=O)cc2)nn1 [11d, 6,8-Dichloro-N-(4-(N-(6-methoxypyridazin-3-yl)sulfamoyl)phenyl)-2-oxo-2H-chromene-3-carboxamide]	> 100	> 100	> 100	> 100	–	–	–	–	–	–
NS(=O)(=O)c1ccc(NC(=O)c2cc3cc(Cl)ccc3oc2=O)cc1 [9b, 6-Chloro-2-oxo-N-(4-sulfamoylphenyl)-2H-chromene-3-carboxamide]	–	–	–	–	0.064 µM and 0.0635 µM	0.0523	0.0284 µM	0.818	–	–
COc1ccc2oc(=O)c(C(=O)Nc3cc(C(F)(F)F)c(S(N)(=O)=O)cc3S(N)(=O)=O)cc2c1 [18f, N-(2,4-disulfamoyl-5-(trifluoromethyl)phenyl)-6-methoxy-2-oxo-2H-chromene-3-carboxamide]	–	–	–	–	–	–	–	–	no general cytotoxic effect	97
CCOC(=O)c1cc2ccc(OCC(=O)Nc3ccc(S(N)(=O)=O)cc3)cc2oc1=O [5a, Ethyl 2-oxo-7-(2-oxo-2-((4-sulfamoylphenyl)amino)ethoxy)-2H-chromene-3-carboxylate]	–	–	–	–	–	–	0.0203 µM	0.738	–	–
COc1ccc2cc(C(=O)Nc3ccc(S(N)(=O)=O)cc3)c(=O)oc2c1 [9h, 7-Methoxy-2-oxo-N-(4-sulfamoylphenyl)-2H-chromene-3-carboxamide]	–	–	–	–	–	0.0318	–	–	–	–
NS(=O)(=O)c1ccc(NC(=O)c2cc3cc(Cl)cc(Cl)c3oc2=O)cc1 [9d, 6,8-Dichloro-2-oxo-N-(4-sulfamoylphenyl)-2H-chromene-3-carboxamide]	–	–	–	–	0.238 µM	0.105	0.0463 µM	2.32	–	–
COc1ccc(NS(=O)(=O)c2ccc(NC(=O)c3cc4cc(Cl)ccc4oc3=O)cc2)nn1 [11b, 6-Chloro-N-(4-(N-(6-methoxypyridazin-3-yl)sulfamoyl)phenyl)-2-oxo-2H-chromene-3-carboxamide]	> 100	> 100	> 100	> 100	–	–	–	–	–	–
CCN(CC)c1ccc2cc(C(=O)OCC(=O)Nc3ccc(S(N)(=O)=O)cc3)c(=O)oc2c1 [compound 22, 2-Oxo-2-((4-sulfamoylphenyl)amino)ethyl-7-(diethylamino)-2-oxo-2H-chromene-3-carboxylate]	–	–	–	–	0.023 µM	0.0196	0.0657 µM	0.0744	–	–
CCOC(=O)c1cc2ccc(OCC(=O)Nc3ccc(S(=O)(=O)NC(C)=O)cc3)cc2oc1=O [5c, Ethyl 7-(2-((4-(N-acetylsulfamoyl)phenyl)amino)-2-oxoethoxy)-2-oxo-2H-chromene-3-carboxylate]	> 100	6.1	1.9	> 100	–	–	–	–	–	–
NS(=O)(=O)c1ccc(NC(=O)c2cc3cc(Br)ccc3oc2=O)cc1 [9c, 6-Bromo-2-oxo-N-(4-sulfamoylphenyl)-2H-chromene-3-carboxamide]	–	–	–	–	0.0854 µM	0.0676	0.0162 µM	1.42	–	–

More lines, main results first:

Ki (CA II; μM unless stated) [µM]	Ki (CA IX; μM unless stated) [µM]	Ki (CA XII; μM unless stated) [µM]	Ki (CA I; μM unless stated) [µM]	Ki (CA II; cells/sentences stated in nM)	Ki (CA IX; cells/sentences stated in nM) [µM]	Ki (CA XII; cells/sentences stated in nM)	Ki (CA I; cells/sentences stated in nM) [µM]	SMILES	general cytotoxic effect (HEK293 cells)	viability at 72 h, 100 µM [1] [%]
> 100	> 100	> 100	> 100	–	–	–	–	Cc1nnc(NS(=O)(=O)c2ccc(NC(=O)c3cc4cc(Br)ccc4oc3=O)cc2)s1 [13c, 6-Bromo-N-(4-(N-(5-methyl-1,3,4-thiadiazol-2-yl)sulfamoyl)phenyl)-2-oxo-2H-chromene-3-carboxamide]	–	–
> 100	> 100	> 100	> 100	–	–	–	–	COc1cc(NS(=O)(=O)c2ccc(NC(=O)c3cc4cc(Br)ccc4oc3=O)cc2)nc(OC)n1 [14c, 6-Bromo-N-(4-(N-(2,6-dimethoxypyrimidin-4-yl)sulfamoyl)phenyl) −2-oxo-2H-chromene −3-carboxamide]	–	–
–	–	–	–	0.0763 µM	0.0144	0.0542 µM	1.96	NS(=O)(=O)c1cccc(NC(=O)c2cc3cc(Br)ccc3oc2=O)c1 [16c, 6-Bromo-2-oxo-N-(3-sulfamoylphenyl)-2H-chromene-3-carboxamide]	–	–
–	–	–	–	0.212 µM	0.005	0.052 µM and 0.0521 µM	0.774	COc1ccc2oc(=O)c(C(=O)Nc3cccc(S(N)(=O)=O)c3)cc2c1 [16f, 6-Methoxy-2-oxo-N-(3-sulfamoylphenyl)-2H-chromene-3-carboxamide]	–	–
10.3	–	6.3	> 100	–	–	–	–	CC(=O)NS(=O)(=O)c1ccc(NC(=O)c2cc3ccccc3oc2=O)cc1 [15e, N-(4-(N-acetylsulfamoyl)phenyl)-2-oxo-2H-chromene-3-carboxamide]	–	–
> 100	> 100	> 100	> 100	–	–	–	–	COc1cc(NS(=O)(=O)c2ccc(NC(=O)c3cc4ccccc4oc3=O)cc2)nc(OC)n1 [14e, N-(4-(N-(2,6-dimethoxypyrimidin-4-yl)sulfamoyl)phenyl)-2-oxo-2H-chromene-3-carboxamide]	–	–
–	–	–	–	0.0535 µM	0.0189	0.0698 µM	0.193	NS(=O)(=O)c1cccc(NC(=O)c2cc3ccccc3oc2=O)c1 [16e, 2-Oxo-N-(3-sulfamoylphenyl)-2H-chromene-3-carboxamide]	–	–
46.8	0.91	10.6	> 100	–	–	–	–	CC(=O)NS(=O)(=O)c1ccc(NC(=O)c2cc3cc(Br)ccc3oc2=O)cc1 [15c, N-(4-(N-acetylsulfamoyl)phenyl)-6-bromo-2-oxo-2H-chromene-3-carboxamide]	–	–
–	–	–	–	0.0752 µM	0.0152	0.0495 µM	0.225	NS(=O)(=O)c1cccc(NC(=O)c2cc3cc(F)ccc3oc2=O)c1 [16i, 6-Fluoro-2-oxo-N-(3-sulfamoylphenyl)-2H-chromene-3-carboxamide]	–	–
